Laboratory results taken from US9067898B1, “Isothiazole derivatives as GPR120 agonists for the treatment of type II diabetes” (Janssen Pharmaceutica NV, priority 2014, dated 2015).

What was measured:
[1] = target: T1, long form of human GPR120 (Homo sapiens, UniProt Q5NUL3); test: Human GPR120 DiscoveRx PathHunter Beta-Arrestin assay, Procedure β-arrestin A; format: cell-based; conditions: PathHunter CHO-K1 GPR120 β-Arrestin cell line, 3000 cells per well, read-out: hGPR120 β-arrestin A EC50
T1 construct: host or cells: PathHunter CHO-K1 GPR120 β-Arrestin Cell Line
T1 sequence (Q5NUL3 1-377 isoform Q5NUL3-1): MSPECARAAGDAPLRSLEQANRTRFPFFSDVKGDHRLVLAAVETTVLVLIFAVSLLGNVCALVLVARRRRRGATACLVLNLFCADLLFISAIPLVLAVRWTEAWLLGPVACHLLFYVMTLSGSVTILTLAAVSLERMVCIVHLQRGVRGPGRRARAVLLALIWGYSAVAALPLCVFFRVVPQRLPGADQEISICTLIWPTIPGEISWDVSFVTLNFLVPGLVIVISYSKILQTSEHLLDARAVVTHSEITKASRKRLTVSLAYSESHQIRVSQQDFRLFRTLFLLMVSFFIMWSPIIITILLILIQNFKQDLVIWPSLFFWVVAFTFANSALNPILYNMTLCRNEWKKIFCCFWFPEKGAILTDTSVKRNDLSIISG
T1 sequence (P32121 whole entry partner): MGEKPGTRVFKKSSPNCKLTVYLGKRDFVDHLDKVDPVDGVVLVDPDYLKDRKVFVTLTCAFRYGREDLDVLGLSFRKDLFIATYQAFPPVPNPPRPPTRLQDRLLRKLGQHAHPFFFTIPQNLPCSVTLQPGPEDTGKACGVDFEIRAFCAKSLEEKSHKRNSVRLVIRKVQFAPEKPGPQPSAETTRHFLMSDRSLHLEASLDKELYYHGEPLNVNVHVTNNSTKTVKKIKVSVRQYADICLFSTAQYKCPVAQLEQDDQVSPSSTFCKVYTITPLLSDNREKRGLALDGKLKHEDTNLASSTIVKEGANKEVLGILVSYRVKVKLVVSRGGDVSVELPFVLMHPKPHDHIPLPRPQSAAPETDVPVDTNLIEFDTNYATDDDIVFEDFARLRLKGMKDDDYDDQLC
Procedure, shortened: (§1)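 PathHunter CHO-K1 β-arrestin cells expressed long-form GPR120 (Procedure A, 3000 cells/well) or short-form GPR120 (Procedure B, 5000 cells/well). Compounds were serially diluted from 25 µM and incubated 90 min at 37 °C in HBSS/20 mM HEPES/0.1% BSA, pH 7.4. Luminescence was read after 60 min detection at RT; EC50 comes from % activity versus positive control, Hill slope fixed at 1.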

[2] = target: T2, short form of the GPR120 receptor (GPR120S) (Homo sapiens, UniProt Q5NUL3); test: Human GPR120 DiscoveRx PathHunter Beta-Arrestin assay, Procedure β-arrestin B; format: cell-based; conditions: PathHunter CHO-K1 GPR120S β-Arrestin cell line, 5000 cells/well, read-out: hGPR120 β-arrestin B EC50
T2 construct: host or cells: PathHunter CHO-K1 GPR120S β-Arrestin Cell Line
T2 sequence (Q5NUL3 whole entry): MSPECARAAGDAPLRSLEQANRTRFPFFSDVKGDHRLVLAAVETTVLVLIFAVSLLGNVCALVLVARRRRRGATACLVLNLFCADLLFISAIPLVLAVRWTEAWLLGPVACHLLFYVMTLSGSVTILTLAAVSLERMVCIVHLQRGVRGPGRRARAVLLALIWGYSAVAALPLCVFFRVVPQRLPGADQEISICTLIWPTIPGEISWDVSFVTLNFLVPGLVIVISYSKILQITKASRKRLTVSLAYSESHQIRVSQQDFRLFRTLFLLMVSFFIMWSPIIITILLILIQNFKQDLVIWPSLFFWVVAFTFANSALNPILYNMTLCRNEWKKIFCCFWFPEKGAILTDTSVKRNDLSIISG
T2 sequence (P32121 whole entry partner): as the sequence (P32121 whole entry partner) above
Procedure, shortened: as §1

EC50 [1] [nM]	EC50 [2] [nM]	Compound
134		CCc1ccc(-c2nsc(C(F)(F)F)c2COc2ccc(CCC(=O)O)c(F)c2F)cc1 [Cpd 73, 3-(4-((3-(4-ethylphenyl)-5-(trifluoromethyl)isothiazol-4-yl)methoxy)-2,3-difluorophenyl)propanoic acid]
166		CCc1ccc(-c2snc(Cl)c2COc2ccc(CCC(=O)O)c(C)c2C)cc1 [Cpd 85, 3-(4-[[3-chloro-5-(4-ethylphenyl)-1,2-thiazol-4-yl]methoxy]-2,3-dimethylphenyl)propanoic acid]
114	161	O=C(O)CCc1cc(F)c(OCc2c(-c3ccc(Cl)c(F)c3)nsc2C(F)(F)F)c(F)c1F [Cpd 138, 3-(4-((3-(4-chloro-3-fluorophenyl)-5-(trifluoromethyl)isothiazol-4-yl)methoxy)-2,3,5-trifluorophenyl)propanoic acid]
218	205	CCc1ccc(-c2cc(F)sc2COc2ccc(CCC(=O)O)c(C)c2C)cc1 [Cpd 1, 3-(4-[[3-(4-ethylphenyl)-5-fluorothiophen-2-yl]methoxy]-2,3-dimethylphenyl)propanoic acid]
156	54	CCc1cc(CCC(=O)O)ccc1OCc1c(-c2ccc(Cl)cc2)nsc1C(F)(F)F [Cpd 162, 3-(4-[[3-(4-chlorophenyl)-5-(trifluoromethyl)-1,2-thiazol-4-yl]methoxy]-3-ethylphenyl)propanoic acid]
112	88	O=C(O)CCc1cc(F)c(OCc2c(-c3ccc(Cl)cc3)nsc2C(F)(F)F)c(F)c1F [Cpd 116, 3-(4-((3-(4-chlorophenyl)-5-(trifluoromethyl)isothiazol-4-yl)methoxy)-2,3,5-trifluorophenyl)propanoic acid]
71	62	O=C(O)CCc1cc(F)c(OCc2c(-c3ccc(Cl)cc3)nsc2C(F)(F)F)c(F)c1 [Cpd 79, 3-(4-[[3-(4-chlorophenyl)-5-(trifluoromethyl)-1,2-thiazol-4-yl]methoxy]-3,5-difluorophenyl)propanoic acid]
	83	Cc1c(CCC(=O)O)ccc(OCc2sc(F)cc2-c2ccc(Cl)cc2)c1C [Cpd 3, 3-(4-((3-(4-chlorophenyl)-5-fluorothiophen-2-yl)methoxy)-2,3-dimethylphenyl)propanoic acid]
38	27	OCCCc1cc(F)c(OCc2c(-c3ccc4c(c3)OCO4)nsc2C(F)(F)F)c(F)c1 [Cpd 93, 3-(4-[[3-(2H-1,3-benzodioxol-5-yl)-5-(trifluoromethyl)-1,2-thiazol-4-yl]methoxy]-3,5-difluorophenyl)propan-1-ol]
97		OCCCc1cc(F)c(OCc2c(-c3ccc(Cl)cc3)nsc2C(F)(F)F)c(F)c1 [Cpd 100, 3-(4-[[3-(4-chlorophenyl)-5-(trifluoromethyl)-1,2-thiazol-4-yl]methoxy]-3,5-difluorophenyl)propan-1-ol]
568	294	Cc1c(CCC(=O)O)ccc(OCc2c(-c3ncc(Cl)cc3F)nsc2C(F)(F)F)c1C [Cpd 180, 3-(4-((3-(5-chloro-3-fluoropyridin-2-yl)-5-(trifluoromethyl)isothiazol-4-yl)methoxy)-2,3-dimethylphenyl)propanoic acid]
40		OCCCc1ccc(OCc2c(Cl)nsc2-c2ccc(Cl)cc2)c(F)c1F [Cpd 102, 3-(4-((3-chloro-5-(4-chlorophenyl)isothiazol-4-yl)methoxy)-2,3-difluorophenyl)propan-1-ol]
168	126	Cc1ccc(-c2nsc(C(F)(F)F)c2COc2c(F)cc(CCC(=O)O)cc2F)c(F)c1 [Cpd 65, 3-(3,5-difluoro-4-[[3-(2-fluoro-4-methylphenyl)-5-(trifluoromethyl)-1,2-thiazol-4-yl]methoxy]phenyl)propanoic acid]
97	68	3-(4-[[3-(4-ethylphenyl)-5-(trifluoromethyl)-1,2-thiazol-4-yl]methoxy]-3,5-difluorophenyl)propanoic acid [Cpd 70]
143	63	O=C(O)CCc1cc(F)c(OCc2c(-c3ccc(Cl)cc3F)nsc2C(F)(F)F)c(F)c1 [Cpd 74, 3-(4-((3-(4-chloro-2-fluorophenyl)-5-(trifluoromethyl)isothiazol-4-yl)methoxy)-3,5-difluorophenyl)propanoic acid]
278	139	O=C(O)CCc1cc(F)c(OCc2c(C3CCCC3)nsc2C(F)(F)F)c(F)c1 [Cpd 71, 3-(4-[[3-cyclopentyl-5-(trifluoromethyl)-1,2-thiazol-4-yl]methoxy]-3,5-difluorophenyl)propanoic acid]
322	990	Cc1ccccc1-c1snc(Cl)c1COc1c(F)cc(CCC(=O)O)cc1F [Cpd 193, 3-(4-[[3-chloro-5-(2-methylphenyl)-1,2-thiazol-4-yl]methoxy]-3,5-difluorophenyl)propanoic acid]
252	409	Cc1c(CCC(=O)O)ccc(OCc2c(-c3ccccc3)nsc2C(F)(F)F)c1C [Cpd 134, 3-(2,3-dimethyl-4-[[3-phenyl-5-(trifluoromethyl)-1,2-thiazol-4-yl]methoxy]phenyl)propanoic acid]
183	183	O=C(O)CCc1c(F)c(F)c(OCc2c(-c3ccc(Cl)cc3)nsc2C(F)(F)F)c(F)c1F [Cpd 152, 3-(4-((3-(4-chlorophenyl)-5-(trifluoromethyl)isothiazol-4-yl)methoxy)-2,3,5,6-tetrafluorophenyl)propanoic acid]
28	31	3-(4-[[3-(4-ethylphenyl)-5-(trifluoromethyl)-1,2-thiazol-4-yl]methoxy]-1-benzothiophen-7-yl)propanoic acid [Cpd 92]
86	43	O=C(O)CCc1cc(F)c(OCc2c(-c3ccc(Cl)c(F)c3)nsc2C(F)(F)F)c(F)c1 [Cpd 67, 3-(4-((3-(4-chloro-3-fluorophenyl)-5-(trifluoromethyl)isothiazol-4-yl)methoxy)-3,5-difluorophenyl)propanoic acid]
261	162	CC(Cc1cc(F)c(OCc2c(-c3ccc(Cl)cc3)nsc2C(F)(F)F)c(F)c1)C(=O)O (centres unmarked) [Cpd 108, 3-(4-[[3-(4-chlorophenyl)-5-(trifluoromethyl)-1,2-thiazol-4-yl]methoxy]-3,5-difluorophenyl)-2-methylpropanoic acid]
431	322	3-(4-[[3-(4-chlorophenyl)-5-(trifluoromethyl)-1,2-thiazol-4-yl]methoxy]-3-methylphenyl)propanoic acid [Cpd 235]
141	100	Cc1c(CCC(=O)O)ccc(OCc2c(-c3ccc(Cl)cc3)nsc2C(F)(F)F)c1C [Cpd 142, 3-(4-((3-(4-chlorophenyl)-5-(trifluoromethyl)isothiazol-4-yl)methoxy)-2,3-dimethylphenyl)propanoic acid]
189	104	O=C(O)CCc1cc(F)c(OCc2c(-c3ncc(Cl)cc3F)nsc2C(F)(F)F)c(F)c1 [Cpd 153, 3-(4-((3-(5-chloro-3-fluoropyridin-2-yl)-5-(trifluoromethyl)isothiazol-4-yl)methoxy)-3,5-difluorophenyl)propanoic acid]
59	87	OCC#Cc1cc(F)c(OCc2c(-c3ccc(Cl)cc3)nsc2C(F)(F)F)c(F)c1 [Cpd 213, 3-(4-[[3-(4-chlorophenyl)-5-(trifluoromethyl)-1,2-thiazol-4-yl]methoxy]-3,5-difluorophenyl)prop-2-yn-1-ol]
57	22	OCCCc1cc(F)c(OCc2c(-c3ccc4c(c3)OCO4)csc2C(F)(F)F)c(F)c1 [Cpd 37, 3-(4-((4-(benzo[d][1,3]dioxol-5-yl)-2-(trifluoromethyl)thiophen-3-yl)methoxy)-3,5-difluorophenyl)propan-1-ol]

Compound	EC50 [1] [nM]	EC50 [2] [nM]
Cc1ccc(-c2nsc(C(F)(F)F)c2COc2c(F)cc(CC(C)C(=O)O)cc2F)c(F)c1 (centres unmarked) [Cpd 76, 3-(3,5-difluoro-4-[[3-(2-fluoro-4-methylphenyl)-5-(trifluoromethyl)-1,2-thiazol-4-yl]methoxy]phenyl)-2-methylpropanoic acid]		179
